# Test system: human skin models based on SkinEthic RHE
# Experiment: Skin irritation test on three-dimensional human skin model (TG439 exposure, Nuclear-ID live/dead nuclear fluorescence, 3D confocal imaging)
# Experimental: As such a biological sample 1, a three-dimensional human skin model approved in the OECD Testing Guidelines (TG) 439 (In Vitro Skin Irritation: Reconstructed Human Epidermis Test Method), such as SkinEthic RHE (manufactured by SkinEthic, France) having a thickness of about 100 μm, is favorably used. […] For irritancy assessment, dermal tissue may be contained in addition to the epidermis.
# The chemical treatment step S1 is carried out in accordance with TG439. […]
# Next, in the fluorescence labeling step S2, the nuclei of the cells in the biological tissues are fluorescence-labeled with a predetermined fluorescent marker. For fluorescence labeling, for example, a first fluorescent dye that specifically labels the nuclei of living cells, and a second fluorescent dye that emits fluorescence of a wavelength different from that of the first fluorescent dye and that specifically labels the nuclei of dead cells are used. […]
# Next, in the image acquisition step S3, fluorescence images of the nuclei of living cells and the nuclei of dead cells at different depth positions in the biological sample are acquired using a fluorescence microscope.
# FIGS. 5 and 6 show fluorescence images of biological samples exposed to 1% and 10% Triton-X, respectively. […] FIGS. 9 and 10 show fluorescence images of biological samples exposed to PBS and a 5% SDS solution, as controls. […]
Molecule,"structures such as the nuclei of dead cells (human skin model exposed to 5% SDS solution, positive control (FIG. 10))","three-dimensional structures of cells, such as the nuclei (human skin model exposed to 1% and 10% chemical (FIGS. 5 to 8), 42 min exposure, 42 h culture per TG439)"
"CCCCCCCCCCCCOS(=O)(=O)[O-].[Na+] [SDS, sodium dodecyl sulphate]",disrupted,–
Triton-X,–,preserved
